Measurements taken from PubChem BioAssay (NCI).
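Compound exposure: 48 hours, 5 concentrations, 96-well plates. GI50 is the concentration that inhibits growth by half. TGI marks complete inhibition of growth.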

What was measured:
Assay in all cases: NCI-60 cell line screen, 48 h
CAKI-1 renal = tested on: CAKI-1 renal
HCT-15 colon = tested on: HCT-15 colon
K-562 leukemia = tested on: K-562 leukemia
OVCAR-5 ovarian = tested on: OVCAR-5 ovarian
SK-MEL-5 melanoma = tested on: SK-MEL-5 melanoma
SK-OV-3 ovarian = tested on: SK-OV-3 ovarian
SNB-19 CNS = tested on: SNB-19 CNS
U251 CNS = tested on: U251 CNS
UACC-257 melanoma = tested on: UACC-257 melanoma
UO-31 renal = tested on: UO-31 renal

## Cc1cc(Cl)ccc1OCC(=O)Oc1c(Cl)c(Cl)c(Cl)c(Cl)c1Cl
CAKI-1 renal
  TGI: > 100 µM
HCT-15 colon
  TGI: 71.7 µM
K-562 leukemia
  TGI: > 100 µM
OVCAR-5 ovarian
  TGI: 59.2 µM
SK-MEL-5 melanoma
  TGI: 61.9 µM
SK-OV-3 ovarian
  TGI: 83.8 µM
SNB-19 CNS
  TGI: 75.5 µM
U251 CNS
  TGI: 70.4 µM
UACC-257 melanoma
  TGI: 45.3 µM
UO-31 renal
  TGI: 32 µM

## COc1cc(C(C)c2cc3c(cc2OCCOCCOc2cc4c(cc2C(C)c2cc(OC)c(OC)c(OC)c2)OCO4)OCO3)cc(OC)c1OC (stereo unspecified)
CAKI-1 renal
  GI50: > 100 µM
  TGI: > 100 µM
HCT-15 colon
  TGI: > 10 µM
K-562 leukemia
  GI50: > 10 µM
  TGI: > 100 µM
OVCAR-5 ovarian
  GI50: > 100 µM
  TGI: > 100 µM
SK-MEL-5 melanoma
  GI50: > 10 µM
  TGI: > 100 µM
SK-OV-3 ovarian
  GI50: > 100 µM
  TGI: > 100 µM
SNB-19 CNS
  GI50: > 100 µM
  TGI: > 100 µM
U251 CNS
  GI50: > 100 µM
  TGI: > 100 µM
UACC-257 melanoma
  TGI: > 10 µM
UO-31 renal
  GI50: > 10 µM
  TGI: > 100 µM

## O=S(O)CCCCSSCCCCS(=O)(O)=S
CAKI-1 renal
  TGI: > 100 µM
HCT-15 colon
  TGI: > 100 µM
K-562 leukemia
  TGI: > 100 µM
OVCAR-5 ovarian
  TGI: > 100 µM
SK-MEL-5 melanoma
  TGI: 30.8 µM
SK-OV-3 ovarian
  TGI: > 100 µM
SNB-19 CNS
  TGI: > 100 µM
U251 CNS
  TGI: > 100 µM
UACC-257 melanoma
  TGI: > 100 µM
UO-31 renal
  TGI: > 100 µM

## COc1ccc(/C=C2/CCOC2=O)cc1
HCT-15 colon
  GI50: > 100 µM
  TGI: > 100 µM
K-562 leukemia
  GI50: > 100 µM
  TGI: > 100 µM
OVCAR-5 ovarian
  GI50: > 100 µM
  TGI: > 100 µM
SK-MEL-5 melanoma
  GI50: > 100 µM
  TGI: > 100 µM
SK-OV-3 ovarian
  GI50: > 100 µM
  TGI: > 100 µM
SNB-19 CNS
  GI50: > 100 µM
  TGI: > 100 µM
U251 CNS
  GI50: > 100 µM
  TGI: > 100 µM
UACC-257 melanoma
  GI50: > 100 µM
  TGI: > 100 µM
UO-31 renal
  GI50: 49.8 µM
  TGI: > 100 µM

## COc1ccc2c(CCNS(=O)(=O)c3ccccc3)c(C(C)=O)[nH]c2c1[N+](=O)[O-]
HCT-15 colon
  TGI: > 100 µM
K-562 leukemia
  TGI: > 100 µM
OVCAR-5 ovarian
  TGI: > 100 µM
SNB-19 CNS
  TGI: > 100 µM
U251 CNS
  TGI: > 100 µM
UACC-257 melanoma
  TGI: > 100 µM
UO-31 renal
  TGI: > 100 µM

## O=C(O)c1cc2c3c(c1)[C@H]1C=CC[C@H]1CN3CC1CC=CC21 (stereo partly specified)
CAKI-1 renal
  TGI: > 100 µM
HCT-15 colon
  TGI: > 100 µM
K-562 leukemia
  TGI: > 100 µM
OVCAR-5 ovarian
  TGI: > 100 µM
SK-MEL-5 melanoma
  TGI: > 100 µM
SK-OV-3 ovarian
  TGI: > 100 µM
SNB-19 CNS
  TGI: > 100 µM
U251 CNS
  TGI: > 100 µM
UACC-257 melanoma
  TGI: > 100 µM
UO-31 renal
  TGI: > 100 µM

## CC(C)(C)OC(=O)N(CCCn1c2c(c3ccccc3c1=O)C(=O)c1ccccc1-2)CCN(CCCn1c2c(c3ccccc3c1=O)C(=O)c1ccccc1-2)C(=O)OC(C)(C)C
CAKI-1 renal
  GI50: 37.9 µM
  TGI: > 50 µM
HCT-15 colon
  GI50: 24.2 µM
  TGI: > 50 µM
K-562 leukemia
  GI50: 21.3 µM
  TGI: > 50 µM
OVCAR-5 ovarian
  GI50: > 50 µM
  TGI: > 50 µM
SK-MEL-5 melanoma
  GI50: > 50 µM
  TGI: > 50 µM
SK-OV-3 ovarian
  GI50: > 50 µM
  TGI: > 50 µM
SNB-19 CNS
  GI50: 37.8 µM
  TGI: > 50 µM
U251 CNS
  GI50: 15.5 µM
  TGI: > 50 µM
UACC-257 melanoma
  GI50: > 50 µM
  TGI: > 50 µM
UO-31 renal
  GI50: > 50 µM
  TGI: > 50 µM

## CC(=O)N1C(=O)C(=O)c2cc(Cl)ccc21
HCT-15 colon
  TGI: > 100 µM
K-562 leukemia
  TGI: > 100 µM
OVCAR-5 ovarian
  TGI: > 100 µM
SK-MEL-5 melanoma
  TGI: > 100 µM
SK-OV-3 ovarian
  TGI: > 100 µM
SNB-19 CNS
  TGI: > 100 µM
U251 CNS
  TGI: > 100 µM
UO-31 renal
  TGI: > 100 µM

## CCC(=O)[O-].CCC(=O)[O-].N.N.N.N.[Co+3].[O-][Cl+3]([O-])([O-])[O-]
HCT-15 colon
  GI50: > 100 µM
  TGI: > 100 µM
K-562 leukemia
  GI50: > 100 µM
  TGI: > 100 µM
OVCAR-5 ovarian
  GI50: > 100 µM
  TGI: > 100 µM
SK-MEL-5 melanoma
  GI50: > 100 µM
  TGI: > 100 µM
SK-OV-3 ovarian
  GI50: > 100 µM
  TGI: > 100 µM
SNB-19 CNS
  GI50: > 100 µM
  TGI: > 100 µM
U251 CNS
  GI50: > 100 µM
  TGI: > 100 µM
UACC-257 melanoma
  GI50: > 100 µM
  TGI: > 100 µM
UO-31 renal
  GI50: > 100 µM
  TGI: > 100 µM

## COc1ccc2c3c([nH]c2c1[N+](=O)[O-])C(C)N(C(=O)/C=C/c1ccccc1)CC3 (stereo unspecified)
CAKI-1 renal
  TGI: > 100 µM
HCT-15 colon
  TGI: > 100 µM
K-562 leukemia
  TGI: > 100 µM
OVCAR-5 ovarian
  TGI: > 100 µM
SNB-19 CNS
  TGI: > 100 µM
U251 CNS
  TGI: > 100 µM
UACC-257 melanoma
  TGI: > 100 µM
UO-31 renal
  TGI: > 100 µM

## CP(=O)(CCSc1ccccc1)c1ccccc1 (stereo unspecified)
CAKI-1 renal
  TGI: > 100 µM
HCT-15 colon
  TGI: > 100 µM
K-562 leukemia
  TGI: > 100 µM
SK-MEL-5 melanoma
  TGI: > 100 µM
SK-OV-3 ovarian
  TGI: > 100 µM
SNB-19 CNS
  TGI: > 100 µM
U251 CNS
  TGI: > 100 µM
UACC-257 melanoma
  TGI: > 100 µM
UO-31 renal
  TGI: > 100 µM

## O=c1cc(-c2ccccc2)oc2cc(OCc3cn(Cc4ccc(F)cc4)nn3)cc(O)c12
CAKI-1 renal
  GI50: 5.76 µM
  TGI: > 100 µM
K-562 leukemia
  GI50: > 100 µM
  TGI: > 100 µM
OVCAR-5 ovarian
  GI50: > 100 µM
  TGI: > 100 µM
SK-MEL-5 melanoma
  GI50: > 100 µM
  TGI: > 100 µM
SK-OV-3 ovarian
  GI50: 6.57 µM
  TGI: > 100 µM
SNB-19 CNS
  GI50: 4.51 µM
  TGI: 83.2 µM
U251 CNS
  GI50: 13.9 µM
  TGI: > 100 µM
UACC-257 melanoma
  GI50: > 100 µM
  TGI: > 100 µM

## C/C(CC(=O)Nc1ccc(C)cc1)=N\NC(N)=S
K-562 leukemia
  TGI: > 100 µM
OVCAR-5 ovarian
  TGI: > 100 µM
SK-MEL-5 melanoma
  TGI: > 100 µM
SK-OV-3 ovarian
  TGI: > 100 µM
U251 CNS
  TGI: > 100 µM
UACC-257 melanoma
  TGI: > 100 µM
UO-31 renal
  TGI: > 100 µM

## CC1=C(CC/C(C)=C/CCC2(C)CCC([C@H](C)C(=O)O)OO2)C(C)(C)CCC1 (stereo partly specified) (tested in a mixture with another compound)
CAKI-1 renal
  TGI: > 100 µM
OVCAR-5 ovarian
  TGI: > 100 µM
SNB-19 CNS
  TGI: > 100 µM
U251 CNS
  TGI: > 100 µM
UACC-257 melanoma
  TGI: > 100 µM
UO-31 renal
  TGI: > 100 µM

## CN1CCN(c2ccc(NC3=C(Cl)C(=O)c4ncccc4C3=O)cc2C(F)(F)F)CC1
CAKI-1 renal
  GI50: 1.72 µM
  TGI: 3.13 µM
HCT-15 colon
  GI50: 1.39 µM
  TGI: 3 µM
K-562 leukemia
  GI50: 0.435 µM
  TGI: > 100 µM
OVCAR-5 ovarian
  GI50: 2.2 µM
  TGI: 5.14 µM
SK-MEL-5 melanoma
  GI50: 3.52 µM
  TGI: 13.3 µM
SNB-19 CNS
  GI50: 13.6 µM
  TGI: 26.8 µM
U251 CNS
  GI50: 4.45 µM
  TGI: 17 µM
UACC-257 melanoma
  GI50: 1.62 µM
  TGI: 3.09 µM
UO-31 renal
  GI50: 1.5 µM
  TGI: 2.82 µM

## Cc1cc2cc(Oc3ccnc(Nc4cccc(CS(=O)(=O)NCCN(C)C)c4)n3)ccc2[nH]1
CAKI-1 renal
  GI50: 3.31 µM
  TGI: 16.6 µM
HCT-15 colon
  GI50: 11 µM
  TGI: 24.2 µM
OVCAR-5 ovarian
  GI50: 5.29 µM
  TGI: 19.5 µM
SK-MEL-5 melanoma
  GI50: 1.86 µM
  TGI: 3.5 µM
SK-OV-3 ovarian
  GI50: 14.4 µM
  TGI: 29.5 µM
SNB-19 CNS
  GI50: 13 µM
  TGI: 26.1 µM
U251 CNS
  GI50: 5.33 µM
  TGI: 18.4 µM
UACC-257 melanoma
  GI50: 2.33 µM
  TGI: 4.79 µM
UO-31 renal
  GI50: 3.14 µM
  TGI: 14.9 µM
